What was measured:
GAPDH/Siah1 association = biological target: T1, GAPDH/Siah1 association (Homo sapiens, UniProt P04406+Q8IUQ4); test: Co-immunoprecipitation (pull down) of GAPDH/Siah1 association in hRP; format: cell-based; details: high glucose 25 mM 48 hrs vs L-glucose 25 mM
T1 construct: immunoprecipitation (IP) with anti-Siah1, followed by western blot (WB) analysis of the immuno-complexes with anti-GAPDH; endogenous in cells; host or cells: primary human retinal pericytes (hRP), Cell Systems
Method: HRP were treated with normal glucose (5 mM), high glucose (25 mM) or L-glucose (25 mM) for 48 hrs.
HRP were treated with normal, osmotic control or high glucose plus 10 μM negative control siRNA, 10 μM Siah1-directed siRNA, 1 μM TAT-FLAG Control, 1 μM TAT-FLAG GAPDH peptide, 1 μM TAT-FLAG Siah1 peptide or 1 μM GAPDH+1 μM Siah1 peptides. Pull down assays were performed as described above. Our GAPDH peptide was designed to block the GAPDH binding site on Siah1 and the Siah1 peptide was designed to block the Siah1 binding site on GAPDH (Supplemental Table 1).
HRP Treatment: Primary cultures of human retinal pericytes (hRP) (Cell Systems; Kirkland, Wash.) were seeded into tissue culture flasks coated with attachment factor (Cell Signaling; Danvers, Mass.). HRP were grown and cultured in Dulbecco's modified Eagle's medium normal glucose (5.5 mM DMEM 1×, Life Technologies; Carlsbad, Calif.) supplemented with 10% FBS, and cell growth supplements, including antibiotics (Lonza; Basel). All cultures were incubated at 37° C., 5% CO2 and 95% relative humidity (20.9% oxygen). Passages 5 to 7 were used for all experiments. HRP identity was confirmed by immunoreactivity of neuron glial 2 (NG2) (EMD Millipore; Temecula, Calif.). […] A FLAG tag peptide sequence enables detection and quantification of these peptides (FIG. 12). […]

[1] = test system: human retinal pericytes (hRP); test: Apoptosis measurement by caspase-3 enzymatic activity in hRP; format: cell-based; details: 25 mM D-glucose for 72 hrs
Method: HRP were treated with normal glucose, L-glucose or high glucose for 48 hrs-72 hrs. […] Furthermore, GAPDH and Siah1 blocking peptides inhibited high glucose-induced hRP apoptosis (FIG. 5D Control Peptide p=0.0019, GAPDH peptide p=0.0090, Siah1 peptide p=0.0053).
HRP Treatment: Primary cultures of human retinal pericytes (hRP) (Cell Systems; Kirkland, Wash.) were seeded into tissue culture flasks coated with attachment factor (Cell Signaling; Danvers, Mass.). HRP were grown and cultured in Dulbecco's modified Eagle's medium normal glucose (5.5 mM DMEM 1×, Life Technologies; Carlsbad, Calif.) supplemented with 10% FBS, and cell growth supplements, including antibiotics (Lonza; Basel). All cultures were incubated at 37° C., 5% CO2 and 95% relative humidity (20.9% oxygen). Passages 5 to 7 were used for all experiments. HRP identity was confirmed by immunoreactivity of neuron glial 2 (NG2) (EMD Millipore; Temecula, Calif.). […] A FLAG tag peptide sequence enables detection and quantification of these peptides (FIG. 12).
Apoptosis Measurements: All apoptosis measurements were taken after 72 hrs of appropriate treatment. […] Samples were quantified using flow cytometry analysis performed at Vanderbilt's Flow Cytometry Shared Resource core laboratory. […] Activity was quantified using the EnzChek Caspase-3 Assay Kit (Life Technologies). […] Fluorescence emission at 440 nm was measured 2 hrs later.

Siah1 = Siah1 total protein western blot in hRP; format: cell-based, human; details: 25 mM D-glucose 48 hrs vs 25 mM L-glucose
Method: HRP were treated with normal glucose (5 mM D-glucose), osmotic control (25 mM L-glucose) or high glucose (25 mM D-glucose) for 48 hrs. Siah1 total protein increased 2-fold in cultures treated with high glucose compared to those treated with the osmotic control (p=0.0136). There was no significant difference between osmotic control and normal glucose treated cells (FIG. 1A).
Nuclear Fractionation and Western Blot Analysis: HRP were treated as necessary. Cells were harvested using TrypLE Express (Life Technologies), and lysed using radioimmunoprecipitation assay (RIPA) buffer (Qiagen; Limburg, Netherlands). The NE-PER nuclear and cytoplasmic extraction reagents (Thermo Scientific; Nashville, Tenn.) were used to separate lysates into cytosolic and nuclear fractions. Samples were equilibrated for total protein concentration, subjected to 10% SDS/PAGE, and gels were transferred to nitrocellulose membranes using the iBlot system (Life Technologies). […] (β-actin was used to determine total protein concentration. Membranes were incubated in Pierce ECL western blotting substrate and developed using ChemiDoc MP (Bio-Rad; Hercules, Calif.). At least three independent experiments were used to generate western blot quantification graphs. Blots were quantified using the ImageJ 1.47v software.

T1 sequence (Q8IUQ4 whole entry): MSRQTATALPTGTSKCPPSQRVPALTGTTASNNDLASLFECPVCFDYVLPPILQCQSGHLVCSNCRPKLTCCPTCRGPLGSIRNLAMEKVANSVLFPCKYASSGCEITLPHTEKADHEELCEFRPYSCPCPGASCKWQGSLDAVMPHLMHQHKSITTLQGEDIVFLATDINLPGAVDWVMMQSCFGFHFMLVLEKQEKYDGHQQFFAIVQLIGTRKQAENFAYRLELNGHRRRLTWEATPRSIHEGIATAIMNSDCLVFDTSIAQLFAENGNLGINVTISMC
T1 sequence (P04406 2-335 limits assumed): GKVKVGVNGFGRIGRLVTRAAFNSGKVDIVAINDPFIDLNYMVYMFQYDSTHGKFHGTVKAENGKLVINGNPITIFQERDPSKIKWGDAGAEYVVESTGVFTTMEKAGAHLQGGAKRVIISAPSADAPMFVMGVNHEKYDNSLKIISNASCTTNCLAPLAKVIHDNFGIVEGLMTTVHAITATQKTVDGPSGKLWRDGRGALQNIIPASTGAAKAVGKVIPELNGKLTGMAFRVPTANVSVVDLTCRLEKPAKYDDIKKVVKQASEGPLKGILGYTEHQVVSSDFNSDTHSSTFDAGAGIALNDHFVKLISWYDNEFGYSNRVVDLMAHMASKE

increase in GAPDH/Siah1 association vs osmotic control (GAPDH/Siah1 association): 1.5 fold
Structure (SMILES): O=C[C@H](O)[C@@H](O)[C@H](O)[C@H](O)CO [high glucose, D-glucose]
increase in caspase-3-enzymatic activity [1]: 3 fold | increase of Siah1 total protein vs osmotic control (Siah1): 2 fold
